Data as given in patent publication US8178506B2, “Oligomeric compounds and compositions for use in modulation of small non-coding RNAs” (Regulus Therapeutics Inc., priority 2003, dated 2012).
In the oligonucleotide strings, read from the 5' end, every base follows the letter of its sugar. An asterisk marks phosphorothioate; unmarked linkages are phosphodiester. Other units and linkages are bracketed, terminal groups are in braces. A string of capitals states the bases alone. e = 2'-O-(2-methoxyethyl) (MOE); [5mC] = 5-methylcytosine; d = 2'-deoxy (DNA)

Columns and labels:
T47Dp53 cells = test: Cell cycle assay in T47Dp53 cells; assay type: cell-based, human; conditions: 150 nM, 48 hours, relative to untreated control
[1] = system: bulged mir-143 target sequence; test: pGL3-bulge(×3) luciferase assay in HeLa cells; assay type: cell-based, human; conditions: 24 hours; for luciferase activity from pGL3-bulge(×3): HeLa, 11, 33 and 100 nM; for luciferase expression: HeLa cells
Procedure: An expression system based on the pGL3-Control (Promega Corp., Madison Wis.) reporter vector and comprising predicted miRNA binding sites was used in transient transfections of HeLa cells with plasmids expressing oligomeric compounds mimicking miRNAs, pre-miRNAs or pri-miRNAs in order to assess the ability of these miRNA mimics to bind and regulate the expression of the luciferase reporter. The effect of increasing the copy number of the miRNA-binding site in the target was also tested by including multiple binding sites in artificial reporter constructs. It is understood that the presence of multiple miRNA-binding sites in a target can include binding sites for different miRNAs.
The following reporter plasmids were constructed by cloning the specified fragment into the XbaI site of the pGL3-control plasmid, placing the potential miRNA-binding site in the 3′-UTR of the luciferase reporter: The reporter plasmid pGL3-bulge(×3) contains three contiguous copies of the sequence ([…]; herein incorporated as SEQ ID NO: 874) which represents a sequence complementary to the mir-143 miRNA except that it is missing 2 nucleotides such that the mir-143 miRNA is presumed to adopt a bulged structure when it hybridizes to this target sequence. The pGL3-GLO1 reporter plasmid contains a DNA fragment comprising the 3′-UTR of the GLO1 sequence; this fragment was PCR-amplified using a primer beginning at nucleotide number 621 of the GLO1 sequence (GenBank Accession NM_006708.1, SEQ ID NO: 821) and the downstream primer hybridizing to the poly A tail. The pGL3-PP2A reporter plasmid contains a DNA fragment comprising the 3′-UTR of the PP2A gene; this fragment was PCR-amplified using a primer beginning at nucleotide number 921 of the PP2A sequence (GenBank Accession NM_004156.1) and the downstream primer hybridizing to the poly A tail. The reporter plasmid pGL3-ERK5-3′-UTR(×1) contains one copy of the sequence […] (herein incorporated as SEQ ID NO: 875), found in the 3′-UTR of ERK5 and predicted by Lewis, et al. to be bound by the mir-143 miRNA, and the reporter plasmid pGL3-ERK5-3′UTR(×3) has three contiguous copies of this sequence. The reporter plasmid pGL3-ERK5-3′UTR(ext) contains one copy of the sequence […] (herein incorporated as SEQ ID NO: 876), which includes an additional ten nucleotides at either end of the mir-143 binding site in 3′-UTR of ERK5 predicted by Lewis, et al. (Lewis et al., Cell, 2003, 115, 787-798). The plasmids pGL3-ERK5-cds(×1), pGL3-ERK5-cds(×2), pGL3-ERK5-cds(×3), and pGL3-ERK5-cds(×5) contain one, two, three or five contiguous copies, respectively, of the novel mir-143 binding site ([…]; herein incorporated as SEQ ID NO: 877) we identified within the coding sequence of ERK5. The unmodified pGL3-Control luciferase reporter vector was used as a negative control, and the pGL3-mir-143 sensor reporter plasmid was used as a positive control.
HeLa cells were routinely cultured and passaged as described. In some embodiments, HeLa cells were transfected with 0.05 μg of the relevant pGL3-sensor plasmid and 0.01 μg pRL-CMV plasmid. Additionally, in some embodiments, cells were treated at various dosages (11 nM, 33 nM, and 100 nM) with the following oligomeric compound mimics: 1) ds-mir-143, or 2) ds-Control as described. In accordance with methods described in Example 12, a luciferase assay was performed 24-hours after transfection. The results, shown in Tables 40 and 41, are an average of three trials. Data are presented as percent untreated control (luciferase plasmid only, not treated with oligomeric compound) luciferase expression, normalized to pRL-CMV levels.

Row | Substance | % cells in cell cycle phase G1 (T47Dp53 cells) | % cells in cell cycle phase G2/M (T47Dp53 cells) | % cells in cell cycle phase S (T47Dp53 cells) | % cells in cell cycle phase aneuploid (T47Dp53 cells) | % cells in cell cycle phase subG1 (T47Dp53 cells) | luciferase activity from pGL3-bulge(×3) [1] | luciferase activity from pGL3-bulge(×3) ([1]; listed as mir-143 dsRNA mimic compound) | luciferase expression ([1]; Table 40, pGL3-bulge(x3), 11 nM) | luciferase expression ([1]; Table 40, pGL3-bulge(x3), 33 nM) | luciferase expression ([1]; Table 40, pGL3-bulge(x3), 100 nM) | luciferase expression ([1]; Table 41, pGL3-bulge(x3), 11 nM) | luciferase expression ([1]; Table 41, pGL3-bulge(x3), 33 nM) | luciferase expression ([1]; Table 41, pGL3-bulge(x3), 100 nM)
1 | 328403 (antisense eA*eG*eG*e[5mC]*e[5mC]*dT*dA*dT*dT*d[5mC]*d[5mC]*dT*dG*dT*dA*eG*e[5mC]*eA*eA*eA) [compound 328403] | 114% | 94% | 87% | 89% | 140% | – | – | – | – | – | – | – | –
2 | ds-mir-143: double-stranded RNA of ISIS 342199 hybridized to its perfect complement ISIS 342200 (sense UGAGAUGAAGCACUGUAGCUCA; antisense UGAGCUACAGUGCUUCAUCUCA; RNA, backbone not given here) | – | – | – | – | – | dose-dependent inhibition of luciferase activity | inhibited luciferase activity from the pGL3-bulge(×3) sensor plasmid in a dose-dependent manner | 50.7 percent untreated control | 35.4 percent untreated control | 17.2 percent untreated control | 36.1 percent untreated control | 33.9 percent untreated control | 22.2 percent untreated control
